≈ marks a conversion by molar mass, not a printed value.
Assays:
[1] = test system: vancomycin-resistant enterococci; test: broth micro-dilution, mean geometric MIC; assay type: cell-based, Enterococcus faecium and Enterococcus faecalis; conditions: enterococci, 24-hour incubation
[2] = test system: Staphylococcus aureus X778; test: broth micro-dilution MIC; assay type: cell-based
Description: (§1) The MIC's were determined using a standard broth micro-dilution assay.

[3] = test system: Staphylococcus aureus 446; test: broth micro-dilution MIC; assay type: cell-based
Description: as §1

[4] = test system: Staphylococcus aureus SA1199A; test: broth micro-dilution MIC; assay type: cell-based
Description: as §1

[5] = test system: Entercoccus faecium 276; test: broth micro-dilution MIC; assay type: cell-based
Description: as §1

[6] = test system: Streptococcus pyogenes C203; test: broth micro-dilution MIC; assay type: cell-based
Description: as §1

[7] = test system: Staphylococcus aureus X400; test: broth micro-dilution MIC; assay type: cell-based
Description: as §1

[8] = test system: Staphylococcus aureus 489; test: broth micro-dilution MIC; assay type: cell-based
Description: as §1

[9] = test system: Staphylococcus aureus 491; test: broth micro-dilution MIC; assay type: cell-based
Description: as §1

[10] = test system: Staphylococcus aureus 447; test: broth micro-dilution MIC; assay type: cell-based
Description: as §1

[11] = test system: Entercoccus faecium 180-1; test: broth micro-dilution MIC; assay type: cell-based
Description: as §1

[12] = test system: vancomycin-susceptible enterococci; test: broth micro-dilution, mean geometric MIC; assay type: cell-based, Enterococcus faecium and Enterococcus faecalis; conditions: enterococci, 24-hour incubation
[13] = test system: Staphylococcus aureus SA1199B; assay type: cell-based
Description: as §1

[14] = test system: Staphylococcus aureus S13E; assay type: cell-based
Description: as §1

[15] = test system: Staphylococcus epidermidis 270; test: broth micro-dilution MIC; assay type: cell-based
Description: (§2) The formula I compounds have in vitro and in vivo activity against Gram-positive pathogenic bacteria. The MIC's were determined using a standard broth micro-dilution assay.

[16] = test system: Staphylococcus haemolyticus 105; test: broth micro-dilution MIC; assay type: cell-based
Description: as §2

[17] = test system: Entercoccus faecium 180; test: broth micro-dilution MIC; assay type: cell-based; conditions: Entercoccus faecium 180
Description: as §2

[18] = test system: Haemophilus influenzae RD; test: broth micro-dilution MIC; assay type: cell-based; conditions: Haemophilus influenzae RD
Description: as §2

[19] = test system: Entercoccus faecium 2041; test: broth micro-dilution MIC; assay type: cell-based; conditions: Entercoccus faecium 2041
Description: as §2

[20] = test system: Escherichia coli EC14; test: broth micro-dilution MIC; assay type: cell-based
Description: as §2

[21] = test system: Enterococcus gallinarum 245; test: broth micro-dilution MIC; assay type: cell-based; conditions: Enterococcus gallinarum 245
Description: as §2

[22] = test system: Streptococcus pneumoniae P1; test: broth micro-dilution MIC; assay type: cell-based
Description: as §2

[23] = test system: Staphylococcus haemolyticus 415; test: broth micro-dilution MIC; assay type: cell-based
Description: as §2

[24] = test system: Staphylococcus aureus SA1199; test: broth micro-dilution MIC; assay type: cell-based
Description: as §1

SMILES | mean geometric MIC, Vancomycin Resistant Strains [1] | MIC [2] | MIC [3] | MIC [4] | MIC [5] | MIC [6] | MIC [7] | MIC [8] | MIC [9] | MIC [10] | MIC [11] | mean geometric MIC, Vancomycin Sensitive Strains [12] | MIC [13] | MIC [15] | MIC [16] | MIC [17] | MIC [18] | MIC [19] | MIC [20] | MIC [21] | further results
CNC(CC(C)C)C(=O)NC1C(=O)NC(CC(N)=O)C(=O)NC2C(=O)NC3C(=O)NC(C(=O)NC(C(=O)O)c4cc(O)cc(O)c4-c4cc3ccc4O)C(OC3CC(C)(N)C(O)C(C)O3)c3ccc(c(Cl)c3)Oc3cc2cc(c3OC2OC(CO)C(O)C(O)C2OC2CC(C)(NCc3c4ccccc4c(Cl)c4ccccc34)C(O)C(C)O2)Oc2ccc(cc2Cl)C1O (stereo not drawn) [Compound 18] | 6.7 mg/L | 0.5 mg/L (≈ 0.275 µM) | 2 mg/L (≈ 1.1 µM) | ≤ 0.06 mg/L | 1 mg/L (≈ 0.55 µM) | ≤ 0.06 mg/L | 1 mg/L (≈ 0.55 µM) | 1 mg/L (≈ 0.55 µM) | 2 mg/L (≈ 1.1 µM) | 8 mg/L (≈ 4.4 µM) | ≤ 0.06 mg/L | 0.38 mg/L | 2 mg/L (≈ 1.1 µM) | 8 mg/L (≈ 4.4 µM) | 16 mg/L (≈ 8.81 µM) | 2 mg/L (≈ 1.1 µM) | 16 mg/L (≈ 8.81 µM) | 0.25 mg/L (≈ 0.138 µM) | > 64 mg/L | 1 mg/L (≈ 0.55 µM) | MIC [14]: 1 mg/L (≈ 0.55 µM); MIC [22]: ≤ 0.06 mg/L; MIC [23]: 8 mg/L (≈ 4.4 µM)
CNC(CC(C)C)C(=O)NC1C(=O)NC(CC(N)=O)C(=O)NC2C(=O)NC3C(=O)NC(C(=O)NC(C(=O)O)c4cc(O)cc(O)c4-c4cc3ccc4O)C(OC3CC(C)(N)C(O)C(C)O3)c3ccc(c(Cl)c3)Oc3cc2cc(c3OC2OC(CO)C(O)C(O)C2OC2CC(C)(NCc3ccc4ccccc4n3)C(O)C(C)O2)Oc2ccc(cc2Cl)C1O (stereo not drawn) [Compound 30] | 4.7 mg/L | ≤ 0.06 mg/L | 1 mg/L (≈ 0.577 µM) | – | 0.25 mg/L (≈ 0.144 µM) | – | ≤ 0.06 mg/L | 0.125 mg/L (≈ 0.0721 µM) | 0.5 mg/L (≈ 0.288 µM) | 2 mg/L (≈ 1.15 µM) | ≤ 0.06 mg/L | 0.071 mg/L | 0.125 mg/L (≈ 0.0721 µM) | 2 mg/L (≈ 1.15 µM) | 4 mg/L (≈ 2.31 µM) | 2 mg/L (≈ 1.15 µM) | > 64 mg/L | ≤ 0.06 mg/L | > 64 mg/L | ≤ 0.06 mg/L | MIC [24]: 0.5 mg/L (≈ 0.288 µM); MIC [14]: 0.125 mg/L (≈ 0.0721 µM)
CNC(CC(C)C)C(=O)NC1C(=O)NC(CC(N)=O)C(=O)NC2C(=O)NC3C(=O)NC(C(=O)NC(C(=O)O)c4cc(O)cc(O)c4-c4cc3ccc4O)C(OC3CC(C)(NCc4ccc([N+](=O)[O-])cc4)C(O)C(C)O3)c3ccc(c(Cl)c3)Oc3cc2cc(c3OC2OC(CO)C(O)C(O)C2OC2CC(C)(NCc3ccc([N+](=O)[O-])cc3)C(O)C(C)O2)Oc2ccc(cc2Cl)C1O (stereo not drawn) [Compound 245] | 13 mg/L | ≤ 0.06 mg/L | ≤ 0.06 mg/L | ≤ 0.06 mg/L | ≤ 0.06 mg/L | 2 mg/L (≈ 1.07 µM) | ≤ 0.06 mg/L | ≤ 0.06 mg/L | 0.5 mg/L (≈ 0.268 µM) | ≤ 0.06 mg/L | ≤ 0.06 mg/L | 0.38 mg/L | ≤ 0.06 mg/L | 0.5 mg/L (≈ 0.268 µM) | 1 mg/L (≈ 0.537 µM) | 2 mg/L (≈ 1.07 µM) | > 64 mg/L | ≤ 0.06 mg/L | 0.5 mg/L (≈ 0.268 µM) | ≤ 0.06 mg/L | MIC [24]: 0.25 mg/L (≈ 0.134 µM); MIC [22]: 1 mg/L (≈ 0.537 µM); MIC [23]: 8 mg/L (≈ 4.29 µM)
CC(C)CC(C(=O)NC1C(=O)NC(CC(N)=O)C(=O)NC2C(=O)NC3C(=O)NC(C(=O)NC(C(=O)O)c4cc(O)cc(O)c4-c4cc3ccc4O)C(OC3CC(C)(N)C(O)C(C)O3)c3ccc(c(Cl)c3)Oc3cc2cc(c3OC2OC(CO)C(O)C(O)C2OC2CC(C)(NCc3ccc(Oc4ccccc4)cc3)C(O)C(C)O2)Oc2ccc(cc2Cl)C1O)N(C)Cc1ccc(Oc2ccccc2)cc1 (stereo not drawn) [Compound 247] | 2.4 mg/L | 0.5 mg/L (≈ 0.256 µM) | 0.5 mg/L (≈ 0.256 µM) | ≤ 0.06 mg/L | 0.25 mg/L (≈ 0.128 µM) | ≤ 0.06 mg/L | 0.5 mg/L (≈ 0.256 µM) | 0.25 mg/L (≈ 0.128 µM) | 0.5 mg/L (≈ 0.256 µM) | 1 mg/L (≈ 0.511 µM) | ≤ 0.06 mg/L | 0.29 mg/L | 0.5 mg/L (≈ 0.256 µM) | 1 mg/L (≈ 0.511 µM) | 1 mg/L (≈ 0.511 µM) | 0.5 mg/L (≈ 0.256 µM) | > 64 mg/L | 0.125 mg/L (≈ 0.0639 µM) | > 64 mg/L | 0.125 mg/L (≈ 0.0639 µM) | MIC [24]: 1 mg/L (≈ 0.511 µM); MIC [14]: 0.5 mg/L (≈ 0.256 µM); MIC [22]: ≤ 0.06 mg/L; MIC [23]: 2 mg/L (≈ 1.02 µM)
CNC(CC(C)C)C(=O)NC1C(=O)NC(CC(N)=O)C(=O)NC2C(=O)NC3C(=O)NC(C(=O)NC(C(=O)O)c4cc(O)cc(O)c4-c4cc3ccc4O)C(OC3CC(C)(NCc4ccc(-c5ccccc5)cc4)C(O)C(C)O3)c3ccc(c(Cl)c3)Oc3cc2cc(c3OC2OC(CO)C(O)C(O)C2OC2CC(C)(NCc3ccc(-c4ccccc4)cc3)C(O)C(C)O2)Oc2ccc(cc2Cl)C1O (stereo not drawn) [Compound 248] | 2 mg/L | 4 mg/L (≈ 2.08 µM) | 2 mg/L (≈ 1.04 µM) | 1 mg/L (≈ 0.52 µM) | 2 mg/L (≈ 1.04 µM) | ≤ 0.06 mg/L | 4 mg/L (≈ 2.08 µM) | 2 mg/L (≈ 1.04 µM) | 1 mg/L (≈ 0.52 µM) | 4 mg/L (≈ 2.08 µM) | ≤ 0.06 mg/L | 0.66 mg/L | 8 mg/L (≈ 4.16 µM) | 0.5 mg/L (≈ 0.26 µM) | 2 mg/L (≈ 1.04 µM) | 0.25 mg/L (≈ 0.13 µM) | > 64 mg/L | 1 mg/L (≈ 0.52 µM) | > 64 mg/L | 4 mg/L (≈ 2.08 µM) | MIC [24]: 1 mg/L (≈ 0.52 µM); MIC [14]: 0.5 mg/L (≈ 0.26 µM); MIC [22]: ≤ 0.06 mg/L; MIC [23]: 4 mg/L (≈ 2.08 µM)
CC(C)CC(C(=O)NC1C(=O)NC(CC(N)=O)C(=O)NC2C(=O)NC3C(=O)NC(C(=O)NC(C(=O)O)c4cc(O)cc(O)c4-c4cc3ccc4O)C(OC3CC(C)(NCc4ccc(-c5ccccc5)cc4)C(O)C(C)O3)c3ccc(c(Cl)c3)Oc3cc2cc(c3OC2OC(CO)C(O)C(O)C2OC2CC(C)(NCc3ccc(-c4ccccc4)cc3)C(O)C(C)O2)Oc2ccc(cc2Cl)C1O)N(C)Cc1ccc(-c2ccccc2)cc1 (stereo not drawn) [Compound 249] | 11 mg/L | > 64 mg/L | 64 mg/L (≈ 30.6 µM) | 8 mg/L (≈ 3.83 µM) | > 64 mg/L | 0.5 mg/L (≈ 0.239 µM) | > 64 mg/L | > 64 mg/L | 32 mg/L (≈ 15.3 µM) | > 64 mg/L | 4 mg/L (≈ 1.91 µM) | 3.5 mg/L | > 64 mg/L | 32 mg/L (≈ 15.3 µM) | > 64 mg/L | 16 mg/L (≈ 7.65 µM) | > 64 mg/L | > 64 mg/L | > 64 mg/L | > 64 mg/L | MIC [24]: > 64 mg/L; MIC [14]: > 64 mg/L; MIC [22]: 1 mg/L (≈ 0.478 µM); MIC [23]: > 64 mg/L
CC(C)CC(C(=O)NC1C(=O)NC(CC(N)=O)C(=O)NC2C(=O)NC3C(=O)NC(C(=O)NC(C(=O)O)c4cc(O)cc(O)c4-c4cc3ccc4O)C(OC3CC(C)(N)C(O)C(C)O3)c3ccc(c(Cl)c3)Oc3cc2cc(c3OC2OC(CO)C(O)C(O)C2OC2CC(C)(N)C(O)C(C)O2)Oc2ccc(cc2Cl)C1O)N(C)Cc1ccc(-c2ccccc2)cc1 (stereo not drawn) [Compound 250] | 16 mg/L | ≤ 0.06 mg/L | 0.25 mg/L (≈ 0.142 µM) | ≤ 0.06 mg/L | ≤ 0.06 mg/L | ≤ 0.06 mg/L | ≤ 0.06 mg/L | ≤ 0.06 mg/L | ≤ 0.06 mg/L | 0.125 mg/L (≈ 0.0711 µM) | ≤ 0.06 mg/L | 0.44 mg/L | ≤ 0.06 mg/L | 0.25 mg/L (≈ 0.142 µM) | 2 mg/L (≈ 1.14 µM) | 2 mg/L (≈ 1.14 µM) | > 64 mg/L | ≤ 0.06 mg/L | > 64 mg/L | 4 mg/L (≈ 2.27 µM) | MIC [24]: ≤ 0.06 mg/L; MIC [14]: ≤ 0.06 mg/L; MIC [22]: ≤ 0.06 mg/L; MIC [23]: 4 mg/L (≈ 2.27 µM)
